For 56 molecules, EC50 results are on record in patent US7737155B2, “Nitrogen-containing heterocyclic compounds and methods of use thereof” (Schering Corporation, priority 2005, dated 2010).

The EC50 is the concentration at which the effect is half-maximal.

Each structure is given as a SMILES string. Bounds are passed on as bounds.

One experiment deals with recombinant human nicotinic acid receptor (NAR) (Homo sapiens, UniProt Q8TDS4). Kind of experiment: Nicotinic Acid Receptor Assay: inhibition of forskolin-stimulated cAMP accumulation in CHO cells (MesoScale Discovery cAMP kit). The settings on record: CHO cells expressing recombinant human NAR; forskolin-stimulated cAMP; read-out: NA EC50 camp. Format: cell-based. On the procedure: The nicotinic acid receptor agonist activity of the inventive compounds was determined by following the inhibition of forskolin-stimulated cAMP accumulation in cells using the MesoScale Discovery cAMP detection kit following the manufacture's protocol. Briefly, Chinese Hamster Ovary (CHO) cells expressing recombinant human nicotinic acid receptor (NAR) were harvested enzymatically, washed 1× in phosphate buffered saline (PBS) and resuspended in PBS containing 0.5 mM IBMX at 3×10^6 cells/mL. Ten μL of cell suspension was added to each well of a 384-well plate which contained 10 μL of test compounds. Test compounds were diluted with PBS containing 6 μM of forskolin. Plates were incubated for 30 minutes at room temperature after the addition of cells. Lysis buffer containing cAMP-Tag was added to each well (10 μL/well) as per the manufacturer's protocol. Plates were then incubated from 45 minutes to overnight. Prior to reading, 10 μL of read buffer was added to each well, and the plate was read in a Sector 6000 plate imager. The signal was converted to cAMP concentration using a standard curve run on each plate.
Chain of recombinant human nicotinic acid receptor (NAR) (Q8TDS4 whole entry): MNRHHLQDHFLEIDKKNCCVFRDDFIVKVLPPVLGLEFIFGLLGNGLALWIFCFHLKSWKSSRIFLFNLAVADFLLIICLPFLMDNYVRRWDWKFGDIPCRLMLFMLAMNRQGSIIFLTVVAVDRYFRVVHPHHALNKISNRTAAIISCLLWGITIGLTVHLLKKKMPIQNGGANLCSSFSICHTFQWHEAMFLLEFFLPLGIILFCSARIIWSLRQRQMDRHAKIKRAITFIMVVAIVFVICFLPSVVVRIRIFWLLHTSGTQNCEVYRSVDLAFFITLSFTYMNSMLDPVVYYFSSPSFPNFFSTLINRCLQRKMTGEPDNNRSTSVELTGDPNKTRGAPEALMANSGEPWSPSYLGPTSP
With `CCc1cc(=O)oc2nc(OCc3cc(-c4ccccc4)oc3C)[nH]c(=O)c12` [Compound 542], the EC50 was > 1000 nM. As to `CCc1cc(=O)oc2nc(OCc3ccc4c(c3)nnn4C)[nH]c(=O)c12` [Compound 543], the EC50 lay within 100 to 1000 nM. Same read-out and setting: with `CCc1cc(=O)oc2nc(OCc3cccc(OC)n3)[nH]c(=O)c12` [Compound 544] the figure was 100 to 1000 nM. Same read-out and setting: with `CCc1cc(=O)oc2nc(OCc3ccc(C(F)(F)F)cn3)[nH]c(=O)c12` [Compound 545] the figure was 100 to 1000 nM; with `CCOC(=O)c1cccc(-c2ccccc2COc2nc3oc(=O)cc(CC)c3c(=O)[nH]2)c1` [Compound 547], 100 to 1000 nM. Same read-out and setting: with `CCc1cc(=O)oc2nc(OCc3ccccc3-c3ccc(CO)cc3)[nH]c(=O)c12` [Compound 548] the figure was 100 to 1000 nM. `CCc1cc(=O)oc2nc(OCc3ccccc3-c3cccc(COC)c3)[nH]c(=O)c12` [Compound 549]: the EC50 lay in the range of 100 to 1000 nM. Same read-out and setting: to `CCc1cc(=O)oc2nc(OCc3ccccc3-c3cccc(C)c3)[nH]c(=O)c12` [Compound 550] belongs > 1000 nM; to `CCc1cc(=O)oc2nc(OCc3ccccc3-c3cccc(C(=O)NC)c3)[nH]c(=O)c12` [Compound 551], 100 to 1000 nM. For `CCc1cc(=O)oc2nc(OCc3ccccc3-c3cccc(C(=O)N(C)C)c3)[nH]c(=O)c12` [Compound 552], the EC50 fell in the range of 100 to 1000 nM. Same read-out and setting: to `CCc1cc(=O)oc2nc(OCc3ccccc3-c3cccc(C(=O)NC4CC4)c3)[nH]c(=O)c12` [Compound 553] belongs > 1000 nM; to `CCc1cc(=O)oc2nc(OCc3ccccc3-c3cccc(Cl)c3)[nH]c(=O)c12` [Compound 554], > 1000 nM. The same measure, in the same setting: with `CCc1cc(=O)oc2nc(OCc3ncccc3C)[nH]c(=O)c12` [Compound 556] the figure was > 1000 nM; with `CCc1cc(=O)oc2nc(OCc3cccc(-c4ccc(F)c(Cl)c4)c3)[nH]c(=O)c12` [Compound 558], > 1000 nM.

For the molecule `CCc1cc(=O)oc2nc(OCc3cccc(-c4ccccc4F)c3)[nH]c(=O)c12` [Compound 559], the EC50 was 100 to 1000 nM. As for `CCc1cc(=O)oc2nc(OCc3cccc(-c4cccc5cccnc45)c3)[nH]c(=O)c12` [Compound 560], the 50% effective concentration (EC50) was > 1000 nM. For `CCc1cc(=O)oc2nc(OCc3cccc(-c4cccc(OC)c4)c3)[nH]c(=O)c12` [Compound 561], the EC50 fell in the range of 100 to 1000 nM.

Take `CCc1cc(=O)oc2nc(OCc3cccc(-c4ccc(OC)nc4)c3)[nH]c(=O)c12` [Compound 562]: the EC50 was in the range of 100 to 1000 nM. The same measure, in the same setting: with `CCc1cc(=O)oc2nc(OCc3cccc(-c4cccnc4)c3)[nH]c(=O)c12` [Compound 563] the figure was 100 to 1000 nM; with `CCc1cc(=O)oc2nc(OCc3cccc(-c4ccccc4Cl)c3)[nH]c(=O)c12` [Compound 564], 100 to 1000 nM.

For the molecule `CCc1cc(=O)oc2nc(OCc3cccc(-c4ccc(OC)c(OC)c4)c3)[nH]c(=O)c12` [Compound 565], the EC50 was 100 to 1000 nM. On the same count and under the same terms, to `CCc1cc(=O)oc2nc(OCc3cccc(-c4ccc(F)cc4)c3)[nH]c(=O)c12` [Compound 566] belongs > 1000 nM; to `CCc1cc(=O)oc2nc(OCc3cccc(C(F)(F)F)n3)[nH]c(=O)c12` [Compound 568], 100 to 1000 nM. On the same count and under the same terms, to `CCc1cc(=O)oc2nc(OC(C)c3ccc(-c4ccccc4)cc3F)[nH]c(=O)c12` (centres unmarked) [Compound 569] belongs 0.001 to 100 nM; to `CCc1cc(=O)oc2nc(OCc3ccccc3-n3ccnc3)[nH]c(=O)c12` [Compound 570], 100 to 1000 nM; to `CCc1cc(=O)oc2nc(OCc3ccccc3-n3cncn3)[nH]c(=O)c12` [Compound 571], 100 to 1000 nM.

For `CCc1cc(=O)oc2nc(OCc3ccc(-c4cccc(OC)c4)cc3F)[nH]c(=O)c12` [Compound 572], the EC50 was 100 to 1000 nM. As to `CCc1cc(=O)oc2nc(OCc3ccc(-c4cccc(C(F)(F)F)c4)cc3F)[nH]c(=O)c12` [Compound 573], the EC50 was 100 to 1000 nM. On the same count and under the same terms, with `CCc1cc(=O)oc2nc(OCc3ccc(-c4ccncc4)cc3F)[nH]c(=O)c12` [Compound 574] the figure was 100 to 1000 nM; with `CCc1cc(=O)oc2nc(OCCN3CCCCC3)[nH]c(=O)c12` [Compound 578], > 1000 nM; with `CCc1cc(=O)oc2nc(OCCN3CCCC3)[nH]c(=O)c12` [Compound 579], > 1000 nM. On the same count and under the same terms, to `C=COCCOc1nc2oc(=O)cc(CC)c2c(=O)[nH]1` [Compound 581] belongs > 1000 nM. On the same count and under the same terms, with `CCc1cc(=O)oc2nc(OCC(N)=O)[nH]c(=O)c12` [Compound 582] the figure was 100 to 1000 nM; with `CCc1cc(=O)oc2nc(OCc3ccccc3-n3ccnc3C)[nH]c(=O)c12` [Compound 583], 100 to 1000 nM. Consider `CCc1cc(=O)oc2nc(OCc3ccccc3-c3ccc(F)c(C#N)c3)[nH]c(=O)c12` [Compound 584], for which the EC50 was 100 to 1000 nM. Same read-out and setting: with `CCc1cc(=O)oc2nc(OCc3ccccc3-c3cccc(C(N)=O)c3)[nH]c(=O)c12` [Compound 585] the figure was 100 to 1000 nM.

Take `CCc1cc(=O)oc2nc(OCCSc3ccc(Cl)cc3)[nH]c(=O)c12` [Compound 587]: the EC50 is > 1000 nM.

Turning to `CCc1cc(=O)oc2nc(OCCS(C)(=O)=O)[nH]c(=O)c12` [Compound 588], the EC50 was > 1000 nM. Same read-out and setting: with `CCc1cc(=O)oc2nc(OCCS(=O)(=O)c3ccc(Cl)cc3)[nH]c(=O)c12` [Compound 591] the figure was 0.001 to 100 nM; with `CCc1cc(=O)oc2nc(OCCN3CCCC3=O)[nH]c(=O)c12` [Compound 592], 100 to 1000 nM; with `CCc1cc(=O)oc2nc(OCC3CCCCO3)[nH]c(=O)c12` (centres unmarked) [Compound 593], > 1000 nM. The same measure, in the same setting: with `CCc1cc(=O)oc2nc(OCC3CCCCN3C)[nH]c(=O)c12` (centres unmarked) [Compound 594] the figure was > 1000 nM; with `CCc1cc(=O)oc2nc(OCCOC(C)C)[nH]c(=O)c12` [Compound 595], 100 to 1000 nM. Same read-out and setting: with `CCc1cc(=O)oc2nc(OCCCOc3ccccc3)[nH]c(=O)c12` [Compound 596] the figure was 100 to 1000 nM. `CCc1cc(=O)oc2nc(OCCOc3cccc(C)c3)[nH]c(=O)c12` [Compound 598]: the EC50 was in the range of 100 to 1000 nM. Still for that read-out and setting: with `CCc1cc(=O)oc2nc(OCC(C)(O)c3ccccc3)[nH]c(=O)c12` (centres unmarked) [Compound 599] the figure was 100 to 1000 nM.

`CCc1cc(=O)oc2nc(OCCOc3ccc(Br)cc3)[nH]c(=O)c12` [Compound 600]: the EC50 was > 1000 nM. Still for that read-out and setting: to `CCc1cc(=O)oc2nc(OCC3CCCO3)[nH]c(=O)c12` (centres unmarked) [Compound 601] belongs > 1000 nM; to `CCc1cc(=O)oc2nc(OCCOc3cc(C(F)(F)F)ccn3)[nH]c(=O)c12` [Compound 602], 100 to 1000 nM.

Staying with this experiment, now noted: NA EC50 camp (nM), CHO cells expressing recombinant human NAR; forskolin-stimulated cAMP.
As for `C#CCOc1nc2oc(=O)cc(CC)c2c(=O)[nH]1` [Compound 555], the EC50 was in the range of 100 to 1000 nM. On the same count and under the same terms, to `CCCC#CCOc1nc2oc(=O)cc(CC)c2c(=O)[nH]1` [Compound 557] belongs 0.001 to 100 nM; to `CCc1cc(=O)oc2nc(OCc3cccc(-c4cccc(C#N)c4)c3)[nH]c(=O)c12` [Compound 567], 100 to 1000 nM.

Consider `CCc1cc(=O)oc2nc(OCc3ccc(-c4cncnc4)cc3F)[nH]c(=O)c12` [Compound 575], for which the EC50 is 100 to 1000 nM. Still for that read-out and setting: to `CCOCCOc1nc2oc(=O)cc(CC)c2c(=O)[nH]1` [Compound 580] belongs > 1000 nM. Take `CCc1cc(=O)oc2nc(OCC#CC3CC3)[nH]c(=O)c12` [Compound 589]: the EC50 was in the range of 0.001 to 100 nM. On the same count and under the same terms, to `CC#CCCOc1nc2oc(=O)cc(CC)c2c(=O)[nH]1` [Compound 590] belongs 100 to 1000 nM.
